In patent US20110097274A1, “Carbon-11 and fluorine-18 labeled radioligands for positron emission tomography (PET) imaging for the brain serotonin transporters” (priority 2002, published 2011):
“And” between values parts separate entries of the source, which are not always exact repeats. Identical values can stand only once. Like-named read-outs stand apart in the source and are kept apart here. One block for each molecule: values may come before it.

Columns and labels:
[1] = Baboon PET study: plasma analysis / input function of parent compound; format: in vivo; conditions: baboons; for Vbol (initial distribution volume of parent compound) / Clearance of parent compound: i.v.; for Vbol (initial distribution volume of parent compound) / Clearance / Clearance of parent compound: mean ± SD of four experiments; for Clearance: male, monkey, arterial plasma, iv
Method: PET imaging protocol: PET experiments (n=20) were performed at Columbia University. Two adult male baboons (baboon A and B) were studied twice with each of the 5 radioligands (4 experiments per radioligand). All experiments took place within a 9-month period. Baboons A and B were 31 kg and 21 kg in weight at the beginning of the experimental period and 28 and 22 kg at the end, respectively.
Experiments were performed according to protocols approved by the Columbia-Presbyterian Medical Center Institutional Animal Care and Use Committee. […] Vital signs were monitored every 10 minutes and the temperature was kept constant at 37° C. with heated water blankets. An i.v. perfusion line was used for hydration and injection of radioligands and nonradioactive drugs. A catheter was inserted in a femoral artery for arterial blood sampling. Head was positioned at the center of the field of view as defined by imbedded laser lines. PET imaging was performed with the ECAT EXACT HR+PET scanner (Siemens/CTI, Knoxville, Tenn.). […] A 15 minute transmission scan was obtained prior to radioligand injection for attenuation correction. Activity was injected i.v. over 30 seconds.
Input function measurements: Arterial samples were collected every 5 seconds with an automated system for the first two minutes and manually thereafter at various intervals. A total of 28 samples were collected.
Selected plasma samples (n=6 per study, collected at 2, 4, 12, 30, 60 and 90 minutes after radioligand administration) were further processed by extraction with methanol (MeOH) followed by HPLC analysis to measure the fraction of plasma activity representing unmetabolized parent compound. The parent fraction was measured as follows: plasma (0.5 mL) was pipetted into a centrifuge tube containing MeOH (1.0 mL). […] The liquid phase was separated from the precipitate. Activity in 0.1 mL of the liquid phase was counted and the rest was injected onto the HPLC. The HPLC eluate was fraction-collected in 6 counting tubes (4.0 mL each). The HPLC system consisted of a Waters 510 isocratic pump, a Rheodyne injector equipped with a 2 mL sample loop, a C18 analytical column (Phenomenex ODS-prep, 10 μm, 4.6×250 mm), a Bioscan Flow Cell gamma detector (Bioscan, Washington, D.C.), and a fraction collector. The column was eluted with a mixture of acetonitrile and aqueous 0.1 M ammonium formate (proportion depending on the tracer being analyzed) at a flow rate of 2 mL/minute. Before plasma sample analysis, the retention time of the parent tracer was established by injection of a few μCi of the tracer and detection of the peak using the Bioscan gamma detector.
The parent fraction was calculated as the ratio of activity in the fractions containing the parent to that of the total activity collected. A biexponential function was fitted to the six measured parent fractions, and used to interpolate values between and after the measurements. […] The input function was then calculated as the product of total counts and interpolated fraction parent at each time point. The measured input function values were fitted to a sum of three exponentials, and the fitted values were used as input for the kinetic analyses. […] The initial distribution volume (Vbol, L) was calculated as the ratio of injected dose to peak plasma concentration.

[2] = Experiment 4: plasma analysis, [^11C]AFM and [^18F]AFM in the same baboon
Method: The animal was then injected with [^18F]AFM (2.60 mCi, 425 Ci/mmol, 1.51 μg) and scanned for 90 minutes. […] Arterial activity was corrected for parent fraction to form the input function.

[3] = Experiment 5: plasma clearance of ^11C and ^18F labeled AFM, AFA, AFE in one baboon; format: in vivo; conditions: one adult male baboon, n = 1 to 4 scans
Method: (§1) General scanning methods were as described in Huang et al. (2002). Arterial input function was measured and corrected for metabolites.

[4] = Biodistribution of labeled radioligands in male Sprague-Dawley rats; format: in vivo; conditions: mean ± SD, n = 3
From the text: Appropriately labeled compounds were studied in animals to assess their binding characteristics in the brain. Procedures for these biodistribution studies are as follows. […] The brain regions (cerebellum, hippocampus, striatum, frontal cortex, thalamus and hypothalamus), along with samples of blood and part of the tail, were removed, weighed, and counted in a Packard Cobra II gamma counter. The percent injected dose (% ID) of the decay- and tail-corrected activity in the brain regions and blood were calculated based upon C-11 standards prepared from the injection solution, and the % ID/g were calculated using the tissue weights.

SERT [5] = conditions: same baboon, one tissue compartment model
Method: The animal was then injected with [^18F]AFM (2.60 mCi, 425 Ci/mmol, 1.51 μg) and scanned for 90 minutes. Analysis of the input function and brain uptake was performed as described in the previous section. […] Arterial activity was corrected for parent fraction to form the input function.
Data were analyzed with a one tissue compartment model.

SERT [6] = experiment: Experiment 5: PET brain imaging of ^11C and ^18F labeled AFM, AFA, AFE in one baboon; format: in vivo; conditions: one adult male baboon, n = 1 to 4 scans, two-compartment model
Method: as §1
Activity distributed in the brain in accordance to the known density distribution pattern of SERT (Laruelle et al., 1988). […] Data were analyzed with a two-compartment model, using the metabolite-corrected arterial time-activity curve as input function. This analysis provided the regional distribution volumes (VT, mL/g).
The nonspecific distribution volume, measured as the distribution volume of the cerebellum (a region with negligible SERT density) was in a similar range for all tracers (10 to 30 mL/g, Table 16).
The specific to nonspecific partition coefficient, V3″, was calculated as the ratio of VT in the region of interest (ROI) to cerebellum VT minus one. V3″ provides a measure related to receptor parameters as follows: […]

SERT [7] = molecular target: T1, SERT (Homo sapiens, UniProt P31645); conditions: cited from earlier work
T1 construct: consistent with values previously measured in six healthy humans (Parsey et al., 2000); host or cells: living human brain (PET, values quoted from Parsey et al. 2000, Ginovart et al. 2001)
T1 sequence (P31645 whole entry): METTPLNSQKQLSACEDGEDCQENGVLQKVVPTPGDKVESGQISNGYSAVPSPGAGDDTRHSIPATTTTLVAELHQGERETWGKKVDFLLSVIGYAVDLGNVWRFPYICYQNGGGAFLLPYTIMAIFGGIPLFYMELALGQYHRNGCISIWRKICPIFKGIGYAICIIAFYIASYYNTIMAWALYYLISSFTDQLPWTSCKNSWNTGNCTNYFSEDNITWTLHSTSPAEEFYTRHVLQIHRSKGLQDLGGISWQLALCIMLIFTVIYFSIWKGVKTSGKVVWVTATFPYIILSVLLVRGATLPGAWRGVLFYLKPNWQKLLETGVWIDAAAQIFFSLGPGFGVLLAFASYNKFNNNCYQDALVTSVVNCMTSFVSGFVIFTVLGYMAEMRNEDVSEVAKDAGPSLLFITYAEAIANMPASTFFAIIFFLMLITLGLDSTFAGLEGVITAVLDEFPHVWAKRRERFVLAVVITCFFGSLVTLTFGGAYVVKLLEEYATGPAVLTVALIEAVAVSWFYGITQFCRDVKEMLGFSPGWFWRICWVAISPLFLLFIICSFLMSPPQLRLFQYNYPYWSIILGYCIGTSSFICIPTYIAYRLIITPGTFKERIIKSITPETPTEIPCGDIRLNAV

SERT [8] = conditions: literature; cited from earlier work
[9] = humans, cited from earlier work; for Parent fraction in plasma at 30 minutes: literature

SMILES: CN(C)Cc1ccccc1Sc1ccc(I)cc1N [[^11C]ADAM]
Vbol (initial distribution volume of parent compound) [1]: 8.1 ± 3.1 L
Clearance [1]: 1120 mL/min

SMILES: CN([11CH3])Cc1ccccc1Sc1ccc(CF)cc1N [[^11C]AFM, [^11C]2-[2-(Dimethylaminomethyl)phenylthio]-5-fluoromethylphenylamine]
Clearance of the parent compound [2]: 31 L/h
Percent plasma activity corresponding to the parent compound ([2]; 2 minutes): 75.6%
Percent plasma activity corresponding to the parent compound ([2]; 4 minutes): 55.4%
Percent plasma activity corresponding to the parent compound ([2]; 12 minutes): 21.4%
Percent plasma activity corresponding to the parent compound ([2]; 30 minutes): 9.4%
Percent plasma activity corresponding to the parent compound ([2]; 60 minutes): 6.4%
Percent plasma activity corresponding to the parent compound ([2]; 90 minutes): 6.7%
Clearance [3]: 47 ± 11 L/h
% ID/g Blood ([4]; 10 min post-injection): 0.37 ± 0.28 % ID/g
% ID/g Cerebellum ([4]; 10 min post-injection): 0.40 ± 0.06 % ID/g
% ID/g Frontal Ctx. ([4]; 10 min post-injection): 0.99 ± 0.25 % ID/g
% ID/g Hippocamp. ([4]; 10 min post-injection): 0.59 ± 0.14 % ID/g
% ID/g Hypothal. ([4]; 10 min post-injection): 0.75 ± 0.19 % ID/g
% ID/g Striatum ([4]; 10 min post-injection): 0.72 ± 0.17 % ID/g
% ID/g Thalamus ([4]; 10 min post-injection): 0.79 ± 0.15 % ID/g
% ID/g Blood ([4]; 30 min post-injection): 0.28 ± 0.01 % ID/g
% ID/g Cerebellum ([4]; 30 min post-injection): 0.41 ± 0.11 % ID/g
% ID/g Frontal Ctx. ([4]; 30 min post-injection): 1.31 ± 0.28 % ID/g
% ID/g Hippocamp. ([4]; 30 min post-injection): 0.95 ± 0.29 % ID/g
% ID/g Hypothal. ([4]; 30 min post-injection): 1.37 ± 0.48 % ID/g
% ID/g Striatum ([4]; 30 min post-injection): 1.12 ± 0.21 % ID/g
% ID/g Thalamus ([4]; 30 min post-injection): 1.18 ± 0.30 % ID/g
% ID/g Blood ([4]; 60 min post-injection): 0.19 ± 0.03 % ID/g
% ID/g Cerebellum ([4]; 60 min post-injection): 0.21 ± 0.04 % ID/g
% ID/g Frontal Ctx. ([4]; 60 min post-injection): 1.37 ± 0.10 % ID/g
% ID/g Hippocamp. ([4]; 60 min post-injection): 0.84 ± 0.10 % ID/g
% ID/g Hypothal. ([4]; 60 min post-injection): 1.27 ± 0.16 % ID/g
% ID/g Striatum ([4]; 60 min post-injection): 1.02 ± 0.15 % ID/g
% ID/g Thalamus ([4]; 60 min post-injection): 1.29 ± 0.22 % ID/g
Thalamus V3″ (SERT [5]): 2.26
Clearance of parent compound [1]: 90 ± 46 L/h
Vbol (initial distribution volume of parent compound) [1]: 17.6 ± 1.3 L
Cerebellum V (nonspecific distribution volume) (SERT [6]): 32 ± 6 mL/g

Vbol (initial distribution volume of parent compound) [1]: 8.5 ± 1.8 L
Clearance [1]: 967 mL/min
SMILES: CN(C)Cc1ccccc1Sc1ccc(Br)cc1N [[^11C]DAPA]

SMILES: CN(C)Cc1ccccc1Sc1ccc(C#N)cc1N [[^11C]DASB]
Data acquisition required to derive stable VT values in all regions (SERT [7]; humans (Ginovart et al., 2001)): no more than 80 minutes
V3″ occipital cortex (SERT [7]; humans, literature): 0.51±0.09
VT CER (cerebellum distribution volume) (SERT [7]; humans, literature): 11.8 ± 1.5 mL/g
Parent fraction in plasma at 30 minutes [1]: 20±1%
Vbol (initial distribution volume of parent compound) [1]: 12.6 ± 2.2 L
Clearance [1]: 1400 mL/min
Kd (SERT [8]): 1.1 nM
Parent fraction in plasma at 30 minutes [9]: 40±7%
f1 (plasma free fraction) ([9]; n=5 (Ginovart et al., 2001)): 11.0±1.2%

SMILES: [11CH3]Sc1ccc([C@H]2CN3CCC[C@H]3c3ccccc32)cc1 [[^11C]McN 5652]
V3″ medial prefrontal cortex (SERT [7]; humans (Parsey et al., 2000)): 0.08
V3″ cingulate cortex (SERT [7]; humans, literature): 0.21
V3″ hippocampus (SERT [7]; humans, literature): 0.49
V3″ midbrain (SERT [7]; humans, literature): 1.63
V3″ occipital cortex (SERT [7]; humans, literature): 0.17
V3″ striatum (SERT [7]; humans, literature): 1.03
V3″ temporal cortex (SERT [7]; humans, literature): 0.22
V3″ thalamus (SERT [7]; humans, literature): 0.92
VT CER (cerebellum distribution volume) (SERT [7]; humans, literature): 17.8 ± 1.9 mL/g and 11.9 ± 3.3 mL/g
Data acquisition required for time-independent / stable VT or BP estimates (SERT [7]; humans, regions with high SERT density such as the midbrain (Parsey et al., 2000)): at least 120 minutes
Parent fraction in plasma at 30 minutes [1]: 28±13%
Clearance of parent compound [1]: 58 ± 13 L/h
Vbol (initial distribution volume of parent compound) [1]: 5.9 ± 1.8 L
Parent fraction in plasma at 30 minutes [9]: 59±10%
